{
  "source": "patent US10801077B2",
  "about": "“Influenza A virus variants” (Vertex Pharmaceuticals Incorporated, priority 2014, dated 2020)",
  "key": {"[1]": {"system": "PR8-PB2-F323L", "type": "cell-based, influenza A virus"}, "[2]": {"system": "PR8-PB2-F325V", "type": "cell-based, influenza A virus"}, "[3]": {"system": "PR8-PB2-S324R", "type": "cell-based, influenza A virus"}, "[4]": {"system": "PR8-PB2-K376Q", "type": "cell-based, influenza A virus"}, "[5]": {"system": "PR8-PB2-M431I", "type": "cell-based, influenza A virus"}, "[6]": {"system": "PR8-Wild Type", "test": "microbe, parasite or virus in culture", "type": "cell-based, influenza A virus"}, "[7]": {"system": "PR8-PB2-K376R", "type": "cell-based, influenza A virus"}, "[8]": {"system": "A/Puerto Rico/8/34, A/California/07/2009, A/Wisconsin/67/2005 influenza virus variants", "type": "cell-based"}, "[9]": {"system": "PR8-PB2-S324N", "type": "cell-based, influenza A virus"}, "[10]": {"system": "PR8-PB2-H357Q", "type": "cell-based, influenza A virus"}},
  "data": [
    {"smiles": "CC(C)(C)[C@@H](CC(=O)O)Nc1nc(-c2c[nH]c3ncc(F)cc23)ncc1F", "note": "[Compound 1]", "values": [
      {"measurement": "Sensitivity to Compound 1 Fold EC50 Shift", "setting": "[1]", "result": 8.5, "unit": "fold"},
      {"measurement": "Sensitivity to Compound 1 Fold EC50 Shift", "setting": "[2]", "result": 3.5, "unit": "fold"},
      {"measurement": "Sensitivity to Compound 1 Fold EC50 Shift", "setting": "[3]", "result": 33, "unit": "fold"},
      {"measurement": "Sensitivity to Compound 1 Fold EC50 Shift", "setting": "[4]", "result": 408, "unit": "fold"},
      {"measurement": "Sensitivity to Compound 1 Fold EC50 Shift", "setting": "[5]", "result": 131, "unit": "fold"},
      {"measurement": "Sensitivity to Compound 1 Fold EC50 Shift", "setting": "[6]", "result": 1.0, "unit": "fold"},
      {"measurement": "EC50", "setting": "[6]; Influenza A virus, PR8, MDCK, read-out: Sensitivity to Compound 1 EC50 (SD)", "result": 1.3, "unit": "nM"},
      {"measurement": "Sensitivity to Compound 1 Fold EC50 Shift", "setting": "[7]", "result": 231, "unit": "fold"},
      {"measurement": "reduction in sensitivity to Compound 1", "setting": "[8]", "result": "> 10", "unit": "fold"},
      {"measurement": "shift in Compound 1 EC50", "setting": "[8]", "result": "10- to 1720 fold"},
      {"measurement": "shifts in sensitivity to Compound 1", "setting": "[8]", "result": "greater than 10 fold"},
      {"measurement": "Sensitivity to Compound 1 Fold EC50 Shift", "setting": "[9]", "result": 31, "unit": "fold"},
      {"measurement": "Sensitivity to Compound 1 Fold EC50 Shift", "setting": "[10]", "result": 15, "unit": "fold"}
    ]}
  ]
}
